Where only a bound is given, the exact number is not on record here.

In the case of `CCOC(=O)Nc1cc(OC(=O)OC)c(Cl)cc1F`, the melting point (in general, the temperature, or range, at which the solid turns liquid) was in the range of 144 to 147 °C.

In turn, `COc1ccc(-n2nc(Cl)cc2-c2ccc(OCCO)cc2)cn1` came in with a melting point of 136 to 138 °C.

Take `O=C(CNN1C(=O)c2ccccc2S1(=O)=O)N[C@@H](Cc1ccccc1)C(=O)O`: the melting point was in the range of 201 to 204 °C.

Molecule `CCCCCC(=O)NS(=O)(=O)CCc1cc(OCCCC)nn1Cc1ccc(Cl)cc1Cl` displayed a melting point of 90 to 92 °C.

`Cc1c(-c2ccnnc2)ssc1=S` came in with a melting point of 146 °C.

For `COc1ccc(C(=O)O)c2ccc(C(F)(F)F)nc12`, the melting point fell in the range of 248 to 249 °C.

The molecule `O=[N+]([O-])c1ccc(C(O)c2ncco2)c(Cl)c1` (stereo not drawn) displayed a melting point of 158 to 160 °C.

`O=CC1=C(Cl)c2cccc(Cl)c2CC1` registered a melting point of 83.5 to 84 °C.

Molecule `CO[C@H]1CC[C@H](C(=O)N2CCC(c3[nH]nc4c3C(=O)c3c(NC(=O)NN5CCOCC5)cccc3-4)CC2)CC1` showed a melting point of 178 to 180 °C.

Take `CC(C)CC(=O)c1cc(-c2ccccc2)no1`: the melting point lay in the range of 62 to 64 °C.

`CCCCc1nc(CO)c(Sc2ccccc2)n1Cc1ccc(-c2ccccc2C(=O)O)cc1`: the melting point was determined as 220 °C.

In turn, `O=C(O)c1ccc(=O)n(-c2ccccc2)c1` came in with a melting point of 115 to 120 °C.

`O=C1CCC(C2CCCCC2)C(=O)C1` (stereo not drawn) came in with a melting point of 137 to 140 °C.

The molecule `CCCCN(C(=O)C(C)C)c1ccc(-c2ccccc2)o1` showed a melting point of 87 °C.

Turning to `CC(=O)c1ccc(C(=O)NCC(=O)NCC(F)(F)F)c2ccccc12`, the melting point was 169 °C.

Molecule `O=C1c2ccccc2C(=O)N1OCCCN1CCN(c2cccc(Cl)c2)CC1` returned a melting point of 140 to 142 °C.

In turn, `CCCc1nc(N)nc(O)c1I` yielded a melting point of 233 to 234 °C.

Consider `CN1CCC2(c3cccc(O)c3)CCCC2C1` (stereo not drawn), for which the melting point lay in the range of 151 to 153 °C.

Turning to `CN1CCC2(CC1=O)c1ccccc1Oc1ccccc12`, the melting point lay in the range of 158 to 159 °C.

Take `CCOC(=O)c1c(Cn2cncn2)nc2ccc(Cl)cc2c1-c1ccccc1`: the melting point was 114 to 116 °C.

For `O=C1c2ccccc2C(=O)N1n1cccc1Cl`, the melting point is 130 to 132 °C.

As for `CCCCCCCCCCCCCCOc1ccc(C(=O)Nc2ccccc2)cc1`, the melting point fell in the range of 124 to 126 °C.

The molecule `COc1ccc(/C=C/c2ccncc2)cc1OCCCCCc1ccccc1` had a melting point of 98 to 100 °C.

Take `COc1cc(C)c([N+](=O)[O-])c(C)c1`: the melting point lay in the range of 50 to 52 °C.

Regarding `O=C(NC12CC3CC(CC(C3)C1)C2)c1ccccc1C(c1ccc(O)cc1)c1ccc(O)cc1`, the melting point was 167 to 169 °C.

As for `CCCCC(=O)c1c(-c2ccc3c(Br)c(OCC(=O)O)ccc3c2)oc2ccc(Cl)cc12`, the melting point was 130 to 132 °C.

The molecule `O=c1c(-c2ccccc2)c[nH]n1-c1cccc(C(F)(F)F)c1` displayed a melting point of 210 to 213 °C.

The molecule `Cc1cccc(NC(=O)C2=C(O)c3ccc4ccccc4c3S(=O)(=O)N2)c1` came in with a melting point of 245 °C.

As to `Clc1ccc(C2(Cn3cncn3)CC(Cl)CO2)c(Cl)c1` (stereo not drawn), the melting point is 97 °C.

`CC(Cc1cc(-c2ccccc2)nc2ccccc12)C(=O)N(C)C1CCCCC1` (stereo not drawn) came in with a melting point of 160 °C.

On to `O=[N+]([O-])c1ccccc1-c1ccno1`, for which the melting point fell in the range of 66 to 69 °C.

Take `CCOCCn1c(SC2CCN(C(=O)c3cc(C)cc(C)c3)C(Cc3ccccc3)C2)nc2ccccc21` (stereo not drawn): the melting point came to 147 °C.

`O=C(O)CCCOc1cccc(CCCCCCOc2ccc3c(c2CCCc2ccccc2)CCCC3=O)c1CCC(=O)O` yielded a melting point of 89 to 91 °C.

The molecule `CCc1cc2c(=O)c3cccc(C(=O)OC)c3n(Cc3ccc(-c4ccccc4-c4nnn[nH]4)cc3)c2s1` registered a melting point of 228 to 231 °C.

`Clc1nc(-n2cccn2)ncc1Cc1ccccc1`: the melting point was 149 to 151 °C.

`NS(=O)(=O)c1cc2c(cc1Cl)NC(c1ccccc1)NS2(=O)=O` (stereo not drawn) registered a melting point of 235 to 238 °C.

For `COc1cc2oc(=O)c3c(c2cc1OC)CCN(Cc1ccc(Cl)cc1)C3`, the melting point was in the range of 173 to 175 °C.

Turning to `CCC(CC)Nc1c([N+](=O)[O-])cc(C#N)c(COC)c1[N+](=O)[O-]`, the melting point was 46 to 49 °C.

In turn, `N#Cc1cc(C2=NOC(c3cc(Cl)cc(Cl)c3)(C(F)(F)F)C2)ccc1-n1cccn1` (stereo not drawn) showed a melting point of 169 to 176 °C.

The molecule `CCC(=O)NC(Cc1ccccc1)c1ccccn1` (stereo not drawn) had a melting point of 91 to 93 °C.

For the molecule `CN1C(=O)CCC(C)(C)c2cc(Nc3ncc(Cl)c(Nc4ccccc4-n4cccn4)n3)ccc21`, the melting point was 136 to 138 °C.

Molecule `CNc1cc(N2CCCNCC2)ccc1S(=O)(=O)c1cccc(F)c1` yielded a melting point of 153 to 154 °C.

`Cn1cnc2c3cccnc3n(-c3ccccc3)c(=O)c21`: the melting point was more than 300 °C.

Consider `CCCCSCC(=O)c1ccc2[nH]c(=O)[nH]c2c1`, for which the melting point lay within 211 to 213 °C.

In turn, `O=c1c2ccsc2ccn2ccnc12` came in with a melting point of 267 °C.

Turning to `COC(=O)c1cc(Nc2ccccc2)c(Nc2ccccc2)cc1C(=O)OC`, the melting point was 178 °C.

Molecule `CCCN(CCOc1c(Cl)cccc1Cl)C1CCc2c(ccc(OCc3ccc(OC(=O)C(C)C)cc3)c2OCc2ccc(OC(=O)C(C)C)cc2)C1` (stereo not drawn) displayed a melting point of 84 to 86 °C.

`O=C(NCC12CC3CC(CC(C3)C1)C2)c1cc(-c2ccc(Cl)cc2C(=O)O)ccc1Cl` came in with a melting point of 207 to 210 °C.

In turn, `CCOC(=O)C(C)Sc1nc(-c2cc(C(C)(C)C)c(O)c(C(C)(C)C)c2)c[nH]1` (stereo not drawn) registered a melting point of 80 to 82 °C.

The molecule `CCC(C)c1ccccc1Sc1c(O)cc(-c2ccccc2)oc1=O` (stereo not drawn) registered a melting point of 170 to 171 °C.

`Fc1ccccc1-c1ccnc2ncnn12` returned a melting point of 168 to 172 °C.

Turning to `CCCCCCCCN1N=C(C)CC1=O`, the melting point was found to be 59 °C.

As for `C#CCn1c(C(F)(F)F)c(C(C)O)sc1=O` (racemic), the melting point lay within 77 to 78 °C.

Regarding `CC(=O)Oc1ccc(C(C)(C)C)cc1C1(OC(C)=O)C(=O)c2ccccc2C1=O`, the melting point is 195 to 196 °C.

With `CCOC(=O)CC(=O)N1NCCCC1C(=O)OC(C)(C)C` (stereo not drawn), the melting point fell in the range of 86 to 87 °C.

As to `COC(=O)CCc1nc(CCc2ccc(C(=O)OC)cc2)ccc1O`, the melting point fell in the range of 137 to 139 °C.

Consider `Cn1c(=O)[nH]c2cc3[nH]c(-c4cccnc4)nc3cc21`, for which the melting point was more than 300 °C.

`COc1ccc(OC)c(COc2ccc(S(=O)(=O)c3ccc(C)nc3Nc3c(C)cc(C)cc3C)cc2)c1` came in with a melting point of 128 to 130 °C.

With `CCn1c(=O)n(C2OC(CO)C(O)C2O)c2nc(N)[nH]c(=O)c21` (stereo not drawn), the melting point lay in the range of 185 to 187 °C.

In turn, `O=C(O)CCCCCCCCCN1C(=O)c2ccccc2C1=O` registered a melting point of 58 to 60 °C.

As for `CCC1(CCCCN2CCN(c3ccccn3)CC2)C(=O)Nc2ccc(C)cc21` (stereo not drawn), the melting point fell in the range of 168 to 170 °C.

`O=C(c1cccc(Nc2nc(-c3ccccc3)nc3ccccc23)c1)N1CCN(c2ncc(Cc3ccccc3)cn2)CC1` yielded a melting point of 214 to 215 °C.

The molecule `COc1cc(OC)cc(-c2nc[nH]c2-c2ccc(OC)c(O)c2)c1` registered a melting point of 181 to 182 °C.

Take `CC(C)(C)c1cc(-c2nn(CCC(=O)O)c3ncccc23)cc(C(C)(C)C)c1O`: the melting point fell in the range of 183 to 186 °C.

As for `CCN(CC)c1ccc(C=C2Cc3ccccc3C2=O)c(C)c1`, the melting point turned out to be 134 °C.

As for `CCCOC(=O)C1CCC2C3CCC4CC(O)C(O)CC4(C)C3C(NCCC(C)C)CC12C` (stereo not drawn), the melting point fell in the range of 140 to 142 °C.

`C#CCOc1cc(Oc2ccc(F)cc2)ncn1` returned a melting point of 81.4 °C.

Molecule `OC(CCSC(=S)Nc1ccc(Cl)cn1)c1ccccc1` (stereo not drawn) came in with a melting point of 91 °C.

Take `CC1=C(/C=C/C(C)=C/C=C/C(C)=C\C(=O)O)C(C)(C)C(=O)CC1`: the melting point is 178 to 179 °C.

Regarding `CCCCOc1c(CNC(=O)OC(C)(C)C)n(CC(C)C)c(=O)c2ccc(/C=C/C(=O)O)cc12`, the melting point fell in the range of 207 to 209 °C.

`COC(=O)N(C)CCCCC(=O)OC[C@@H]1CC(c2ccc(-c3ccc(N4C[C@H](Cn5ccnn5)OC4=O)cc3F)cn2)=NO1` came in with a melting point of 82 °C.

`CC(C)Nc1cccnc1N1CCN(C(=O)c2ccc(C(=O)NC(C)(C)CO)cc2)CC1` yielded a melting point of 113 to 115 °C.

`COC(=O)C1(NS(=O)(=O)c2ccc3c(Cl)cnc(NC(=N)N)c3c2)CCOCC1` displayed a melting point of 245 to 247 °C.

The molecule `COc1ccc(C2N(C(C)=O)c3ccccc3-c3c([N+](=O)[O-])cnn32)cc1` (stereo not drawn) gave a melting point of 153 to 154 °C.

Regarding `Cc1oc(-c2ccc(C(F)(F)F)cc2)nc1-c1ccc(-c2cc(Br)c(O)c(Br)c2)cc1`, the melting point fell in the range of 79 to 81 °C.

For `CS(=O)(=O)Nc1cccc(OCCCN2CCC(OC(c3ccccc3)c3ccccc3)CC2)c1`, the melting point lay within 90 to 95.5 °C.

`CC(C)Cn1cnc2c(N)nc3cccc(-c4ccccc4)c3c21` registered a melting point of 263 to 265 °C.

Take `O=c1nc(-c2ccccc2)c2ccsc2[nH]1`: the melting point was 247 to 249 °C.

On to `COC(=O)NC(=S)Nc1ccccc1NC(=O)CCl`, for which the melting point lay in the range of 156 to 158 °C.

In turn, `COc1cc2c(cc1O)CCN(Cc1ccccc1OC)C2` displayed a melting point of 128 to 129 °C.

The molecule `N#Cc1c(Cl)c2cc(F)ccc2n(Cc2ccc(F)cc2)c1=O` showed a melting point of 236 °C.

The molecule `CO[C@H]1CC[C@H](N(C)C(=O)c2ccc3nonc3c2)CC1` came in with a melting point of 143 to 144 °C.

`NC(CN1C(=O)C2(COc3cc4c(cc32)OCO4)c2c(Cl)cccc21)=NO` (stereo not drawn) came in with a melting point of 180 to 185 °C.

Turning to `CCOC(=O)c1c(C(F)(F)F)oc(C(F)(F)F)c(C(=O)OCC)c1=O`, the melting point lay within 90 to 91 °C.

The molecule `CCCCCCCCCCCCCCCCCCc1nc2ncccc2o1` returned a melting point of 84 to 85 °C.

In turn, `CCOC(=O)c1c(N)c2cccnc2n(C)c1=O` gave a melting point of 203 to 206 °C.

In turn, `CNC(=O)c1c(N)n(C2CCCC2)c2nc(Cl)ccc2c1=O` came in with a melting point of 256 to 258 °C.

As to `CC(C)C(NC(=O)c1ccccc1SSc1ccccc1C(=O)NC(C(=O)O)C(C)C)C(=O)O` (stereo not drawn), the melting point is 226 to 228 °C.

These data come from a melting point compilation (Tetko et al.; mined from patent text by program, amines drawn as free bases though some values may be those of a salt).
